# Experiments:
# [1] = tested on: E. coli (Rosetta DE3 cells)
# Protocol: Plate Reader Refeeding. All assays were done with the BioTek Synergy™ Plate Reader with injectors. All sensors and control proteins were expressed in Rosetta (DE3) cells. PanZ was used as a non-fluorescent control, cpGFP was used as a fluorescent control, and PANcACe was the experimental. Reads were done with excitation 405 nm and 485 nm and emission at 514 nm. Cultures were grown in LB with kanamycin overnight at 37° C. then used to induce new cultures. Cells were grown at 37° C. to an OD600 of 0.6 then induced with 0.5 mM IPTG and grown overnight at 18° C. Cultures were split into 2, 600 μL aliquots and spun at 4000 rpm for 5 minutes.
# Glucose Starvation and Refeeding. The supernatant was discarded and pellets were resuspended in 600 μL either starvation buffer (100 mM NaPO4, 2 mM MgCl2, 15 mM (NH4)2SO4+0 mM glucose) or refed buffer (100 mM NaPO4, 2 mM MgCl2, 15 mM (NH4)2SO4+28 mM glucose). 85 μL was added to 3 wells of a 96 well plate for each sample. […] Plates were read for 10 minutes every 30 seconds with 10 seconds of shaking between reads. […] Plates were read for 60 minutes every 30 seconds with 10 seconds of shaking between reads.
# 2-Deoxyglucose Starvation and Refeeding. […] Plates were read for 10 minutes every 30 seconds with 10 seconds of shaking between reads. […] Plates were read for 60 minutes every 30 seconds with 10 seconds of shaking between reads.
# [2] = target: PancAce (PANcACe), PanZ(R69)-GA-cpGFP-GA-(E70)PanZ, SEQ ID NO: 5 (Escherichia coli, UniProt P37613, INS69[…]); experiment: Acyl-CoA screen, fluorescence response to 1 mM acyl-CoA; assay type: biochemical, E. coli; details: FIG. 11, n=3
# Protocol: Acyl-CoA Screen. Assays were done in 384 well plates with 30 μL final volume. All sensors and control proteins were diluted to 6 μM in protein storage buffer. CoA, acetyl-CoA, propionyl-CoA, butyryl-CoA, malonyl-CoA, and succinyl-CoA were dissolved in water at a concentration of 6 mM. Wells were set up in triplicate with 14 μL water, 6 μL assay buffer, and 5 μL sensor. 5 μL of an acyl-CoA or water were added to 1 μM sensor before reading. Plates were read at excitation 485 nm and emission 514 nm. Triplicates were averaged and percent difference between acyl-CoAs and water were calculated.
# [3] = target: PancAce (PANcACe), PanZ(R69)-GA-cpGFP-GA-(E70)PanZ, SEQ ID NO: 5; E. coli PanZ with cpGFP insertion (Escherichia coli, UniProt P37613, INS69[…]); experiment: Fluorescence titration of PancAce with acetyl-CoA, CoA and propionyl-CoA; assay type: binding
# Protocol: Acetyl-CoA and CoA Titration and Spectrum Scans. Assays were done in 384 well plates with […] final well volume. All sensors and control proteins were diluted to 6 μM in protein storage buffer. Acetyl-CoA and CoA were dissolved in water at a concentration of 60 μM then serial diluted to 30 μM, 15 μM, 6 μM, 3 μM, 0.6 μM, 0.06 μM, and 0.006 μM. Wells were set up in triplicate with 14 μL water, 6 μL assay buffer, and 5 μL sensor. 5 μL of an acetyl-CoA stock or water were added to 1 μM sensor before reading. For Titration curves, plates were read at excitation 485 nm and emission 514 nm. For excitation scans plates were excited from 400 nm to 500 nm at 1 nm increments and emissions were read at […]. For emission scans plates were excited at 485 nm, 427 nm, or 405 nm and emissions were read from 500 nm to 575 nm in 1 nm increments. Triplicates were averaged and plotted for scans and percent difference between no acetyl-CoA and acetyl-CoA wells were calculated for titrations.
# Titrations of acetyl-CoA and CoA with PANcACe and cpGFP alone were performed (FIG. 9). […] Since the insertion site of cpGFP is very close to the acetyl-CoA binding site, this effect was not surprising. […] Further, the selectivity of PANcACe for short-chain acyl-CoAs was tested (FIG. 11). […] A propionyl-CoA titration confirmed this apparent affinity difference (FIG. 12). Since saturation was not achieved up to 10 mM propionyl-CoA, it was assumed that the same maximal sensor response would be achieved for propionyl-CoA as for acetyl-CoA.
# [4] = target: E. coli PanZ (PanZ-CFP fusion protein), SEQ ID NO: 1 (Escherichia coli, UniProt P37613); experiment: Surface plasmon resonance binding to PanZ-CFP; details: SPR
# Protocol: Surface Plasmon Resonance. Acetyl-CoA and CoA binding to PanZ-CFP were analyzed via SPR using a MASS-1 instrument (Bruker Daltonics, Billerica, MA). Independent experiments were performed using freshly prepared PanZ-CFP, Acetyl-CoA, and CoA stocks on two separate days (surfaces 1 & 2). HLC200 μM sensor surfaces (Xantec Bioanalytics, Düsseldorf, Germany) were activated with EDC/NHS, and then 250 nM PanZ-CFP ligand was captured on the sensor “Spot B” at 10 μL/minute at 2020 RU (surface 1) and 2360 RU (surface 2). The surface was then blocked with […]. The experimental running buffer was 50 mM Tris pH 7.5, 150 mM NaCl, 0.05% Tween-20 for surface 1 replicates and 200 mM Tris pH 7.5, 150 mM NaCl, 0.05% Tween-20 for surface 2 replicates. Experiments were performed at room temperature with a flowrate of 30 μL/minute. A three-fold dilution series (81-0.33 μM) with 1 minute association and 2 minutes dissociation was run in multiple replicates (at least two for each analyte on each surface). Data were double blanked by subtracting the blank in-line control surface (Spot A) and buffer reference injections. Kinetic binding data were globally fit to the Langmuir model for 1:1 binding for each replicate of concentration series using the Sierra Analyser software (version 3.4.1, Bruker Daltonics, Billerica, MA). […]
# [5] = target: PanZ(R69)-GA-cpGFP-GA-(E70)PanZ (PancAce), SEQ ID NO: 5 (Escherichia coli, UniProt P37613, INS69[…]); experiment: Linker screen, fluorescence response to 1 mM acetyl-CoA; assay type: biochemical, E. coli
# Protocol: Linker Length Screen. cpGFP (HTSD1.00) was inserted into 6× histidine tagged PanZ (HTSD1.10) after amino acid R69 with all 16 possible combinations of N- and C-terminal linkers with amino acid sequences GAS, GA, G, no linker using NEBuilder® HiFi DNA Assembly Master Mix (NEB) (HTSD8.00-8.15).
# Position and Linker Screen. Assays were done in 96 well plates with 100 μL final well volumes. All sensors and control proteins were diluted to 10 μM in protein storage buffer (50 mM Tris pH 7.5, 150 mM NaCl, 10% glycerol). Acetyl-CoA was dissolved in water at a concentration of 10 mM. A 5× assay buffer was used ([…] pH 7.5, 750 mM NaCl). Wells were set up in triplicate with 60 μL water, 20 μL reaction buffer, and 10 μL sensor. Then either 10 μL of water or 10 μL of acetyl-CoA were added to 1 μM sensor before reading. […] Triplicates were averaged and percent difference between no acetyl-CoA and acetyl-CoA wells were calculated.
compound,measurement,setting,value
"O=CC[C@@H](O)[C@H](O)[C@H](O)CO [2-DG, 2-deoxyglucose]",recovery of acetyl-CoA levels (sensor response) upon refeeding,"[1]; PancAce-expressing cells deprived of glucose 3 hours with 28 mM 2-DG, refed 28 mM glucose, monitored 1 hour",lower recovery of acetyl-CoA levels upon refeeding
CCC(=O)SCCNC(=O)CCNC(=O)[C@H](O)C(C)(C)COP(=O)(O)OP(=O)(O)OC[C@H]1O[C@@H](n2cnc3c(N)ncnc32)[C@H](O)[C@@H]1OP(=O)(O)O [propionyl-CoA],sensor fluorescence response,[2],some response
same,fold lower affinity for propionyl-CoA compared to acetyl-CoA,[3]; from fitted Kd values,2.4 fold
same,Kd (estimated),"[3]; saturation not achieved up to 10 mM, fit assumes same maximal sensor response as for acetyl-CoA",626000 ± 75000 nM
CC(=O)O [acetate],duration of increase in PancAce signal upon feeding of starved cells,"[1]; 280 μM acetate, pre-starved PancAce-expressing cells",about 30 minutes
"CC(C)(COP(=O)(O)OP(=O)(O)OC[C@H]1O[C@@H](n2cnc3c(N)ncnc32)[C@H](O)[C@@H]1OP(=O)(O)O)[C@@H](O)C(=O)NCCC(=O)NCCS [CoA, coenzyme A]",sensor response,"[3]; FIG. 9, acetyl-CoA or CoA titration",the sensor responds only to acetyl-CoA and not CoA
same,CoA concentration required to elicit the same sensor response as 100 μM acetyl-CoA,"[3]; interpolation, saturation not achieved for CoA",10 mM
"CC(=O)SCCNC(=O)CCNC(=O)[C@H](O)C(C)(C)COP(=O)(O)OP(=O)(O)OC[C@H]1O[C@@H](n2cnc3c(N)ncnc32)[C@H](O)[C@@H]1OP(=O)(O)O [acetyl-CoA, acetyl coenzyme A]",fold higher affinity for acetyl-CoA versus CoA,[4],7 fold
same,Kd,"[4]; 1:1 Langmuir fit, average ± standard error, room temperature, pH 7.5",1700 ± 200 nM
same,lower end of detectable acetyl-CoA concentration range,[3]; FIG. 9,about 10 UM
same,upper end of detectable acetyl-CoA concentration range,[3]; FIG. 9,about 2 mM
same,fold higher affinity for acetyl-CoA compared to propionyl-CoA,"[3]; FIG. 12, λex=485, λem=514 nm, n=3-5",approximately 2.5 fold
same,fold lower affinity of PANcACe for acetyl-CoA compared to PanZ,"[3]; fluorescence Kd,app vs SPR Kd",about 150 fold
same,maximum fluorescence response at saturating acetyl-CoA,"[3]; λex=485, λem=514 nm",~2 fold
same,fold-change in fluorescence emission ((F1−F0)/F0),"[5]; 1 mM acetyl-CoA, N-GA/C-GA linkers, λex=485, λem=514 nm",about 0.6 fold
same,response of GA/GA linker sensor relative to original AS/AS linker,"[5]; acetyl-CoA, FIG. 6",about 2.5 fold
